Molecular target: unphosphorylated-BTK kinase domain (UP-BTK), GST-tagged human BTK (389-659aa) (Homo sapiens (Human), UniProt Q06187)
Test: BTK kinase Lanthascreen binding assay
Conditions: pIC50 = negative log of the IC50 in molar; 60 minutes incubation, 50 nM Tracer 236
In short: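 Lanthascreen competition binding; test compound vs fluorescent tracer on unphosphorylated BTK. Output: pIC50 (−log IC50, M).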

Sequence of unphosphorylated-BTK kinase domain (UP-BTK), GST-tagged human BTK (389-659aa) (Q06187 389-659): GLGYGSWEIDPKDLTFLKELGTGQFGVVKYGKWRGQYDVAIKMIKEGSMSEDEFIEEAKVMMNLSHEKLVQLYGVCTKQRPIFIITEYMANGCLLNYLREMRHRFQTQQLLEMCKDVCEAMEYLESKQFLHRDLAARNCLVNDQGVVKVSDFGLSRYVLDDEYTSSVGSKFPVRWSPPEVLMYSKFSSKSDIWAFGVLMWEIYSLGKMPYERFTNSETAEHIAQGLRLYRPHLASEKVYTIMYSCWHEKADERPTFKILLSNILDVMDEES

Point of comparison: `Cc1cc(Oc2ccccc2)ccc1N1C(=O)Nc2c(C(=O)N[C@H]3CCCOC3)sc3nccc1c23` [Example 67, (S)-5-(2-Methyl-4-phenoxyphenyl)-4-oxo-N-(tetrahydro-2H-pyran-3-yl)-4,5-dihydro-3H-1-thia-3,5,8-triazaacenaphthylene-2-carboxamide], “BTK_I_binding pIC50” value 7.5. Against it:
- CC#CC(=O)N1CCC[C@@H](NC(=O)c2sc3nccc4c3c2NC(=O)N4c2ccc(Oc3ccccc3)cc2C)C1 [Example 42, (R)—N-(1-(But-2-ynoyl)piperidin-3-yl)-5-(2-methyl-4-phenoxyphenyl)-4-oxo-4,5-dihydro-3H-1-thia-3,5,8-triazaacenaphthylene-2-carboxamide] — lower, 7.0
- C=CC(=O)N1CC[C@@H](NC(=O)c2sc3nccc4c3c2NC(=O)N4c2c(C)cc(Oc3ccccc3)cc2F)C1 [Example 45, (R)—N-(1-Acryloylpyrrolidin-3-yl)-5-(2-fluoro-6-methyl-4-phenoxyphenyl)-4-oxo-4,5-dihydro-3H-1-thia-3,5,8-triazaacenaphthylene-2-carboxamide] — lower, 7.1
- N#C/C(=C\C1CC1)C(=O)N1CCC[C@@H](NC(=O)c2sc3nccc4c3c2NC(=O)N4c2ccc(Oc3ccccc3)cc2)C1 [Example 47, (R,E)-N-(1-(2-Cyano-3-cyclopropylacryloyl)piperidin-3-yl)-4-oxo-5-(4-phenoxyphenyl)-4,5-dihydro-3H-1-thia-3,5,8-triazaacenaphthylene-2-carboxamide] — higher, 8.0
- C=C(F)C(=O)N1CCC[C@@H](NC(=O)c2sc3nccc4c3c2NC(=O)N4c2ccc(Oc3ccccc3)cc2C)C1 [Example 48, (R)—N-(1-(2-Fluoroacryloyl)piperidin-3-yl)-5-(2-methyl-4-phenoxyphenyl)-4-oxo-4,5-dihydro-3H-1-thia-3,5,8-triazaacenaphthylene-2-carboxamide] — lower, 6.9
- C=CC(=O)N1CCC[C@@H](NC(=O)c2sc3nccc4c3c2NC(=O)N4c2ccc(OC3CC3)cc2C)C1 [Example 51, (R)—N-(1-Acryloylpiperidin-3-yl)-5-(4-cyclopropoxy-2-methylphenyl)-4-oxo-4,5-dihydro-3H-1-thia-3,5,8-triazaacenaphthylene-2-carboxamide] — the same, 7.5
- Cc1cc(Oc2c(F)cccc2F)ccc1N1C(=O)Nc2c(C(=O)N[C@@H]3CCCN(C)C3)sc3nccc1c23 [Example 52, (R)-5-(4-(2,6-Difluorophenoxy)-2-methylphenyl)-N-(1-methylpiperidin-3-yl)-4-oxo-4,5-dihydro-3H-1-thia-3,5,8-triazaacenaphthylene-2-carboxamide] — lower, 7.0
- C=CC(=O)N1C[C@H](NC(=O)c2sc3nccc4c3c2NC(=O)N4c2ccc(Oc3ccccc3)cc2C)[C@@H](OC)C1 [Example 54, N-((3S,4S)-1-Acryloyl-4-methoxypyrrolidin-3-yl)-5-(2-methyl-4-phenoxyphenyl)-4-oxo-4,5-dihydro-3H-1-thia-3,5,8-triazaacenaphthylene-2-carboxamide] — lower, 7.3
- C=CC(=O)N1C[C@@H](O)[C@@H](NC(=O)c2sc3nccc4c3c2NC(=O)N4c2ccc(Oc3ccccc3)cc2C)C1 [Example 58, N-((3S,4R)-1-Acryloyl-4-hydroxypyrrolidin-3-yl)-5-(2-methyl-4-phenoxyphenyl)-4-oxo-4,5-dihydro-3H-1-thia-3,5,8-triazaacenaphthylene-2-carboxamide] — within 0.2 log units, 7.6
- Cc1c(N2C(=O)Nc3c(C(=O)N[C@@H]4CCCN(C)C4)sc4nccc2c34)ccc(Oc2ccccc2)c1F [Example 59, (R)-5-(3-Fluoro-2-methyl-4-phenoxyphenyl)-N-(1-methylpiperidin-3-yl)-4-oxo-4,5-dihydro-3H-1-thia-3,5,8-triazaacenaphthylene-2-carboxamide] — lower, 7.3
- CCCN1CCC[C@@H](NC(=O)c2sc3nccc4c3c2NC(=O)N4c2ccc(Oc3ccccc3)cc2C)C1 [Example 60, (R)-5-(2-Methyl-4-phenoxyphenyl)-4-oxo-N-(1-propylpiperidin-3-yl)-4,5-dihydro-3H-1-thia-3,5,8-triazaacenaphthylene-2-carboxamide] — lower, 6.8
- Cc1c(N2C(=O)Nc3c(C(=O)N[C@H]4CCCOC4)sc4nccc2c34)ccc(Oc2ccccc2)c1F [Example 61, (S)-5-(3-Fluoro-2-methyl-4-phenoxyphenyl)-4-oxo-N-(tetrahydro-2H-pyran-3-yl)-4,5-dihydro-3H-1-thia-3,5,8-triazaacenaphthylene-2-carboxamide] — lower, 7.3
- C=CC(=O)N1CCC[C@@H](NC(=O)c2sc3nccc4c3c2NC(=O)N4c2ccc(CC)cc2C)C1 [Example 62, (R)—N-(1-Acryloylpiperidin-3-yl)-5-(4-ethyl-2-methylphenyl)-4-oxo-4,5-dihydro-3H-1-thia-3,5,8-triazaacenaphthylene-2-carboxamide] — lower, 7.1
- C=CC(=O)N1CCC[C@@H](NC(=O)c2sc3nccc4c3c2NC(=O)N4c2ccc(Oc3c(F)cccc3F)cc2C)C1 [Example 64, (R)—N-(1-Acryloylpiperidin-3-yl)-5-(4-(2,6-difluorophenoxy)-2-methylphenyl)-4-oxo-4,5-dihydro-3H-1-thia-3,5,8-triazaacenaphthylene-2-carboxamide] — within 0.2 log units, 7.6
- C=CC(=O)N1CCC[C@@H](NC(=O)c2sc3nccc4c3c2NC(=O)N4c2ccc(OC3CCOCC3)cc2C)C1 [Example 65, (R)—N-(1-Acryloylpiperidin-3-yl)-5-(2-methyl-4-((tetrahydro-2H-pyran-4-yl)oxy)phenyl)-4-oxo-4,5-dihydro-3H-1-thia-3,5,8-triazaacenaphthylene-2-carboxamide] — lower, 6.6
- C=CC(=O)N1CCC[C@@H](NC(=O)c2sc3nccc4c3c2NC(=O)N4c2ccc(OCC)cc2C)C1 [Example 66, (R)—N-(1-Acryloylpiperidin-3-yl)-5-(4-ethoxy-2-methylphenyl)-4-oxo-4,5-dihydro-3H-1-thia-3,5,8-triazaacenaphthylene-2-carboxamide] — within 0.2 log units, 7.4
- C=CC(=O)N1CCC[C@@H](NC(=O)c2sc3nccc4c3c2NC(=O)N4c2c(F)cc(Oc3ccccc3)cc2F)C1 [Example 69, (R)—N-(1-Acryloylpiperidin-3-yl)-5-(2,6-difluoro-4-phenoxyphenyl)-4-oxo-4,5-dihydro-3H-1-thia-3,5,8-triazaacenaphthylene-2-carboxamide] — higher, 7.7
- Cc1cc(Oc2cccc3ccoc23)ccc1N1C(=O)Nc2c(C(=O)N[C@@H]3CCCN(C)C3)sc3nccc1c23 [Example 70, (R)-5-(4-(Benzofuran-7-yloxy)-2-methylphenyl)-N-(1-methylpiperidin-3-yl)-4-oxo-4,5-dihydro-3H-1-thia-3,5,8-triazaacenaphthylene-2-carboxamide] — lower, 7.1
- Cc1c(N2C(=O)Nc3c(C(=O)N[C@@H]4CCCOC4)sc4nccc2c34)ccc(Oc2ccccc2)c1F [Example 71, (R)-5-(3-Fluoro-2-methyl-4-phenoxyphenyl)-4-oxo-N-(tetrahydro-2H-pyran-3-yl)-4,5-dihydro-3H-1-thia-3,5,8-triazaacenaphthylene-2-carboxamide] — the same, 7.5
- COCCC(=O)N1CC[C@@H](NC(=O)c2sc3nccc4c3c2NC(=O)N4c2ccc(Oc3ccccc3)cc2C)C1 [Example 72, (R)—N-(1-(3-Methoxypropanoyl)pyrrolidin-3-yl)-5-(2-methyl-4-phenoxyphenyl)-4-oxo-4,5-dihydro-3H-1-thia-3,5,8-triazaacenaphthylene-2-carboxamide] — within 0.2 log units, 7.4
- COc1ccccc1Oc1ccc(N2C(=O)Nc3c(C(=O)N[C@@H]4CCCN(C)C4)sc4nccc2c34)c(C)c1 [Example 73, (R)-5-(4-(2-Methoxyphenoxy)-2-methylphenyl)-N-(1-methylpiperidin-3-yl)-4-oxo-4,5-dihydro-3H-1-thia-3,5,8-triazaacenaphthylene-2-carboxamide] — lower, 6.8
- CCN1CCC[C@@H](NC(=O)c2sc3nccc4c3c2NC(=O)N4c2ccc(Oc3ccccc3)cc2C)C1 [Example 74, (R)—N-(1-Ethylpiperidin-3-yl)-5-(2-methyl-4-phenoxyphenyl)-4-oxo-4,5-dihydro-3H-1-thia-3,5,8-triazaacenaphthylene-2-carboxamide] — lower, 6.9
- Cc1cc(Oc2ccccc2)ccc1N1C(=O)Nc2c(C(=O)N[C@@H]3CCCN(C(=O)CCO)C3)sc3nccc1c23 [Example 75, (R)—N-(1-(3-Hydroxypropanoyl)piperidin-3-yl)-5-(2-methyl-4-phenoxyphenyl)-4-oxo-4,5-dihydro-3H-1-thia-3,5,8-triazaacenaphthylene-2-carboxamide] — lower, 7.2
- CCc1ccccc1Oc1ccc(N2C(=O)Nc3c(C(=O)N[C@@H]4CCCN(C(=O)/C(C#N)=C/C5CC5)C4)sc4nccc2c34)c(C)c1 [Example 76, (R,E)-N-(1-(2-Cyano-3-cyclopropylacryloyl)piperidin-3-yl)-5-(4-(2-ethylphenoxy)-2-methylphenyl)-4-oxo-4,5-dihydro-3H-1-thia-3,5,8-triazaacenaphthylene-2-carboxamide] — lower, 6.8
- C=CC(=O)N1CC[C@@H](NC(=O)c2sc3nccc4c3c2NC(=O)N4c2ccc(Oc3ccccc3)c(C)c2C)C1 [Example 77, (R)—N-(1-Acryloylpyrrolidin-3-yl)-5-(2,3-dimethyl-4-phenoxyphenyl)-4-oxo-4,5-dihydro-3H-1-thia-3,5,8-triazaacenaphthylene-2-carboxamide] — lower, 6.9
- Cc1cc(Oc2ccccc2)ccc1N1C(=O)Nc2c(C(=O)N[C@@H]3CCCN(C(=O)CN(C)C)C3)sc3nccc1c23 [Example 78, (R)—N-(1-(2-(Dimethylamino)acetyl)piperidin-3-yl)-5-(2-methyl-4-phenoxyphenyl)-4-oxo-4,5-dihydro-3H-1-thia-3,5,8-triazaacenaphthylene-2-carboxamide] — lower, 7.3

From patent publication US10800792B2, “Inhibitors of Bruton's tyrosine kinase and method of their use” (JANSSEN PHARMACEUTICA NV, priority 2015, dated 2020)
